The nature of data set [1]: Aqueous solubility (in situ) in D5W after 1 week was determined. The data set is classed as physicochemical.
Data set [2] addresses CaM kinase II (Homo sapiens, UniProt Q13557+Q13555+Q13554+Q9UQM7). Put plainly: Inhibitory activity against Calcium/calmodulin-dependent protein kinase type II. The data set is classed as protein assay.
Data set [3] addresses Cyclin-dependent kinase 2/cyclin E (Homo sapiens, UniProt P24941). Put plainly: Inhibitory activity against Cyclin E-cyclin-dependent kinase 2 in enzymatic assay by measuring phosphorylation of RbING. Type of data set: protein-complex assay.
The target of data set [4] is T1, Cyclin-dependent kinase 4/cyclin D1 (Homo sapiens, UniProt P11802). Put plainly: Inhibitory activity against Cyclin D1-cyclin-dependent kinase 4 in enzymatic assay by measuring phosphorylation of Rb21. The data set is classed as protein-complex assay.
Data set [5] concerns the target T1, Cyclin-dependent kinase 4/cyclin D1. Put plainly: Inhibitory activity against Cyclin D1-cyclin-dependent kinase 4 in enzymatic assay by measuring phosphorylation of RbING. Type of data set: protein-complex assay.
The test system of data set [6] is HCT-116. Put plainly: (§1) Flow cytometry of HCT116 cells, G1 arrest (3 fold increase over control) after 24 hr r. The data set is classed as functional. (In general: Flow cytometry measures light scatter and fluorescence of single cells or particles in a stream.)
Data set [7] addresses Cyclin-dependent kinase 4 (Homo sapiens) (UniProt P11802). Put plainly: Inhibition of Cyclin-dependent kinase 4 specific Ser780 Rb phosphorylation, 3 fold increase over 24 hr incubation in HCT116 cells. Type of data set: functional, cell-based. To be noted: HCT-116; concentration not given here.
In data set [8] the test system is HCT-116. Put plainly: GI arrest (3 fold increase over control) in HCT116 cells was determined by flow cytometry after 24 hr incubation. Type of data set: functional, Homo sapiens.
The subject of data set [9] is HCT-116. Put plainly: In vitro antiproliferative activity against human carcinoma cell line HCT116 (colon). Type of data set: functional, cell-based.
Data set [10] addresses Cyclin-dependent kinase 4 (Homo sapiens) (UniProt P11802). Put plainly: Inhibition of Rb phosphorylation at the CDK4 specific Ser780 residue (1 fold increase over control) after 24 hr incubation in HCT116 cells. Type of data set: functional, cell-based. To be noted: HCT-116, concentration not given here.
For data set [11], the system named is NCI-H460. Put plainly: In vitro antiproliferative activity against human carcinoma cell line H460 (lung). The data set is classed as functional, cell-based.
Data set [12] concerns the target cAMP-dependent protein kinase (PKA) (Homo sapiens, UniProt P22694+P17612+P22612). Put plainly: Inhibitory activity against Protein kinase A (Histone). The data set is classed as protein assay.
For data set [13], the system named is HCT-116. Put plainly: Flow cytometry of HCT116 cells, G1 arrest (1 fold increase over control) after 24 hr r. Type of data set: functional, Homo sapiens.
Data set [14] relates to HCT-116. The data set is described as §1. The data set is classed as functional, Homo sapiens.
Data set [15] has as its target Cyclin-dependent kinase 4 (Homo sapiens) (UniProt P11802). Put plainly: Inhibition of Rb phosphorylation at the CDK4 specific Ser780 residue (3 fold increase over control) after 24 hr incubation in HCT116 cells. The data set is classed as functional, cell-based. The settings on record: HCT-116, concentration not given here.
In data set [16] the test system is HCT-116. Put plainly: Flow cytometry of HCT116 cells, G1 arrest ( fold increase over control) after 24 hr r. Type of data set: functional, Homo sapiens.
For data set [17], the system named is HCT-116. Put plainly: Flow cytometry of HCT116 cells, G1 arrest (fold increase over control) after 24 hr r incubation. The data set is classed as functional, Homo sapiens.

Converted amounts (≈) assume the structure as drawn.

T1 sequence (P11802 whole entry): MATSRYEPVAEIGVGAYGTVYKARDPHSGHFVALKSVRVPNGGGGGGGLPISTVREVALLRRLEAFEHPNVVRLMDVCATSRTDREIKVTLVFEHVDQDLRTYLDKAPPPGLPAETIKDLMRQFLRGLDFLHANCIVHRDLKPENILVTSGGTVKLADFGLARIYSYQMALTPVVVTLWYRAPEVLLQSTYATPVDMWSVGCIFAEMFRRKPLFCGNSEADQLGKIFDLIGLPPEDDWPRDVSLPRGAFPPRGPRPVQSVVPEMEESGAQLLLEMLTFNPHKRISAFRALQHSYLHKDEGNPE
T1 sequence (P24385 whole entry, further chain): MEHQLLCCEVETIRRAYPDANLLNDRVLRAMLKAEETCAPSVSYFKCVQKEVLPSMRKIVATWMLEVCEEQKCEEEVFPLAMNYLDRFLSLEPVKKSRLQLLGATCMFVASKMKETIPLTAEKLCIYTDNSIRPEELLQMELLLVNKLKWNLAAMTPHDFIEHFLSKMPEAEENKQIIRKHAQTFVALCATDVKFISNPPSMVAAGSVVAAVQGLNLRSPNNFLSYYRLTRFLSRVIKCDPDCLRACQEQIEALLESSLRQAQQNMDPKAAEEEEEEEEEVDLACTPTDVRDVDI
Chain of Cyclin-dependent kinase 4 (Homo sapiens) (P11802 whole entry): as the sequence (P11802 whole entry) above

On to `COc1ccc2c3c4c(c5c(ccc6ccn(C)c65)c3n(CCN[C@H]3CC[C@H](O)CC3)c2c1)C(=O)NC4=O`, for which the solubility at 168 h in data set [1] (D5W) was 7800 µg/mL (≈ 15.3 mM). This compound also had a Solubility in [1] (buffer, 168 h) of 7800 µg/mL (≈ 15.3 mM). Further, the IC50 in [2] came out at 1170 nM; in data set [3], 902 nM; in [4], 23 nM; in data set [5] it was 63 nM; in [9] it was 890 nM; in data set [11], 1050 nM. The compound also displayed an IC50 in [12] of 18000 nM. Further, the Fold increase in data set [6] and in [8] was 2 each time. In addition, the figures for the inhibition in data set [7] and in data set [10] were 95% and 67%, respectively.

Consider `Cn1ccc2ccc3c4[nH]c5c(CCO)cccc5c4c4c(c3c21)C(=O)NC4=O`, for which the IC50 was 210 nM in data set [3]; 75 nM in data set [4]; 82 nM in data set [5]; 1130 nM in data set [9]; over 2000 nM in data set [12]. The Fold increase is 1.4 in [13] and 2.7 in [14]. In addition, the results for the inhibition in data set [10] and in data set [15] were 60% and 92%, respectively.

As for `Cn1ccc2ccc3c4[nH]c5ccccc5c4c4c(c3c21)C(=O)NC4=O`, the IC50 in data set [3] was 75 nM; in data set [4], 22 nM; in data set [5] it was 47 nM; in data set [9] it was 2110 nM; in data set [11], 1170 nM; in data set [12], over 2000 nM. In addition, the Fold increase in data set [16] was found to be 2.5; in data set [17], 1.4. Moreover, the inhibition in data set [10] came to 63%; in data set [15], 97%.

As usually defined, the solubility is how much of the substance goes into solution per volume. Lower therefore signals little dissolved substance. For orientation: Solubility means the dissolved amount per volume that the medium holds. A low value points to a poorly soluble substance. What is called IC50 is the point on the concentration scale where inhibition reaches its midpoint. One may read the inhibition as the share of the control response that was lost under treatment.

These data come from ChEMBL document CHEMBL1136094, “Novel, potent and selective cyclin D1/CDK4 inhibitors: indolo[6,7-a]pyrrolo[3,4-c]carbazoles” (Bioorg Med Chem Lett, 2003).
